# Patent US20130072874A1, “DEVICE HAVING ARRAY PROVIDED WITH FINE PROTRUSIONS” (HISAMITSU PHARMACEUTICAL CO., INC., priority 2010, published 2013)
# Tested on: shaved dorsal portion of each guinea pig
# Assay: Suppression of UVB-induced pigmentation, serum applied in advance then device
# Type: in vivo
# Conditions: serum 80 μL (20 μL/cm^2) applied, then 150 μm array device; from the 4th day of device application onward
# Procedure: A serum containing 4-(4-hydroxyphenyl)-2-butanol as an active ingredient solution was applied at 80 μL (20 μL/cm^2) to the shaved dorsal portion of each guinea pig, and then, a device having an array provided with microprotrusions was prepared for the purpose of stretching the skin by the microprotrusions of the array. The array was made of polylactic acid as a material and was of 150 μm as the length of the protrusions, 841 protrusions/cm^2 as the density of the protrusions, and 1 cm^2 as the area, and for a device, the array was fixed onto a covering member (holding member) prepared by stacking a rubber-based pressure-sensitive adhesive layer onto a support (3 cm×5 cm) made of nonwoven fabric.
structure (smiles),measurement,value
CC(O)CCc1ccc(O)cc1 (stereo not shown) [4-(4-hydroxyphenyl)-2-butanol],effect of suppressing pigmentation attributed to UVB irradiation,effect of suppressing pigmentation attributed to UVB irradiation was observed
